From publication PMC12748989 (Nature Communications, 2025) come the findings set out here.

One test relates to PBMC. The settings on record: 12.5 µM.

`CC[C@H](C)[C@H](N)C(=O)N[C@@H](CC(N)=O)C(=O)N[C@@H](CC(C)C)C(=O)N[C@@H](CCCCN)C(=O)N[C@@H](C)C(=O)N[C@@H](CC(C)C)C(=O)N[C@@H](C)C(=O)N[C@@H](C)C(=O)N[C@@H](CC(C)C)C(=O)N[C@@H](C)C(=O)N[C@@H](CCCCN)C(=O)N[C@@H](CCCCN)C(=O)N[C@H](C(=O)N[C@@H](CCCCN)C(N)=O)[C@@H](C)CC` [K14]: the “Average (percentage cell inhibition), Mastoparan PBMC” value in the test with PBMC is listed as 6.4564%. Also, the “Average (percentage cell inhibition), Dmastoparan MDA-MB231 12.5uM” value with MDA-MB-231 cells is given as 21.2164%.

Consider `CC[C@H](C)[C@H](NC(=O)[C@H](CCCCN)NC(=O)[C@H](CCCCN)NC(=O)[C@H](C)NC(=O)[C@H](CC(C)C)NC(=O)[C@H](C)NC(=O)[C@H](C)NC(=O)[C@H](CC(C)C)NC(=O)[C@H](C)NC(=O)[C@H](CCCCN)NC(=O)[C@H](CC(C)C)NC(=O)[C@H](CC(N)=O)NC(=O)[C@@H](N)CC(C)C)C(=O)N[C@@H](CC(C)C)C(N)=O` [L1], for which, in the test with PBMC, the “Average (percentage cell inhibition), Mastoparan PBMC” value stood at 20.4049%. Also, the “Average (percentage cell inhibition), Dmastoparan MDA-MB231 12.5uM” value in the test on MDA-MB-231 cells came out at 57.5292%.

Take `CC[C@H](C)[C@H](N)C(=O)N[C@@H](CC(C)C)C(=O)N[C@@H](CC(C)C)C(=O)N[C@@H](CCCCN)C(=O)N[C@@H](C)C(=O)N[C@@H](CC(C)C)C(=O)N[C@@H](C)C(=O)N[C@@H](C)C(=O)N[C@@H](CC(C)C)C(=O)N[C@@H](C)C(=O)N[C@@H](CCCCN)C(=O)N[C@@H](CCCCN)C(=O)N[C@H](C(=O)N[C@@H](CC(C)C)C(N)=O)[C@@H](C)CC` [L2]: the “Average (percentage cell inhibition), Mastoparan PBMC” value with PBMC was determined as 76.9101%. Also, the “Average (percentage cell inhibition), Dmastoparan MDA-MB231 12.5uM” value in the test on MDA-MB-231 cells was 95.7612%.

In the case of `CC[C@H](C)[C@H](N)C(=O)N[C@@H](CC(N)=O)C(=O)N[C@@H](CC(C)C)C(=O)N[C@@H](CC(C)C)C(=O)N[C@@H](C)C(=O)N[C@@H](CC(C)C)C(=O)N[C@@H](C)C(=O)N[C@@H](C)C(=O)N[C@@H](CC(C)C)C(=O)N[C@@H](C)C(=O)N[C@@H](CCCCN)C(=O)N[C@@H](CCCCN)C(=O)N[C@H](C(=O)N[C@@H](CC(C)C)C(N)=O)[C@@H](C)CC` [L4], the “Average (percentage cell inhibition), Mastoparan PBMC” value in the test on PBMC came to 15.2128%. In the test on MDA-MB-231 cells, the “Average (percentage cell inhibition), Dmastoparan MDA-MB231 12.5uM” value is recorded as 34.0791%.

Turning to `CC[C@H](C)[C@H](N)C(=O)N[C@@H](CC(N)=O)C(=O)N[C@@H](CC(C)C)C(=O)N[C@@H](CCCCN)C(=O)N[C@@H](CC(C)C)C(=O)N[C@@H](CC(C)C)C(=O)N[C@@H](C)C(=O)N[C@@H](C)C(=O)N[C@@H](CC(C)C)C(=O)N[C@@H](C)C(=O)N[C@@H](CCCCN)C(=O)N[C@@H](CCCCN)C(=O)N[C@H](C(=O)N[C@@H](CC(C)C)C(N)=O)[C@@H](C)CC` [L5], the “Average (percentage cell inhibition), Mastoparan PBMC” value in the test with PBMC was 25.5295%. For the same compound, the “Average (percentage cell inhibition), Dmastoparan MDA-MB231 12.5uM” value in the test on MDA-MB-231 cells came out at 46.6396%.

As to `CC[C@H](C)[C@H](N)C(=O)N[C@@H](CC(N)=O)C(=O)N[C@@H](CC(C)C)C(=O)N[C@@H](CCCCN)C(=O)N[C@@H](C)C(=O)N[C@@H](CC(C)C)C(=O)N[C@@H](CC(C)C)C(=O)N[C@@H](C)C(=O)N[C@@H](CC(C)C)C(=O)N[C@@H](C)C(=O)N[C@@H](CCCCN)C(=O)N[C@@H](CCCCN)C(=O)N[C@H](C(=O)N[C@@H](CC(C)C)C(N)=O)[C@@H](C)CC` [L7], the “Average (percentage cell inhibition), Mastoparan PBMC” value in the test on PBMC is on record as 35.4322%. Moreover, in the test on MDA-MB-231 cells, the “Average (percentage cell inhibition), Dmastoparan MDA-MB231 12.5uM” value was determined as 74.1173%.

For `CC[C@H](C)[C@H](N)C(=O)N[C@@H](CC(N)=O)C(=O)N[C@@H](CC(C)C)C(=O)N[C@@H](CCCCN)C(=O)N[C@@H](C)C(=O)N[C@@H](CC(C)C)C(=O)N[C@@H](C)C(=O)N[C@@H](CC(C)C)C(=O)N[C@@H](CC(C)C)C(=O)N[C@@H](C)C(=O)N[C@@H](CCCCN)C(=O)N[C@@H](CCCCN)C(=O)N[C@H](C(=O)N[C@@H](CC(C)C)C(N)=O)[C@@H](C)CC` [L8], the “Average (percentage cell inhibition), Mastoparan PBMC” value in the test with PBMC came out at 16.9354%. Moreover, the “Average (percentage cell inhibition), Dmastoparan MDA-MB231 12.5uM” value in the test on MDA-MB-231 cells was 38.4504%.

`CC[C@H](C)[C@H](N)C(=O)N[C@@H](CC(N)=O)C(=O)N[C@@H](CC(C)C)C(=O)N[C@@H](CCCCN)C(=O)N[C@@H](C)C(=O)N[C@@H](CC(C)C)C(=O)N[C@@H](C)C(=O)N[C@@H](C)C(=O)N[C@@H](CC(C)C)C(=O)N[C@@H](CC(C)C)C(=O)N[C@@H](CCCCN)C(=O)N[C@@H](CCCCN)C(=O)N[C@H](C(=O)N[C@@H](CC(C)C)C(N)=O)[C@@H](C)CC` [L10]: in the test on PBMC, the “Average (percentage cell inhibition), Mastoparan PBMC” value amounted to 52.7294%. Further, in the test on MDA-MB-231 cells, the “Average (percentage cell inhibition), Dmastoparan MDA-MB231 12.5uM” value turned out to be 86.3514%.

Take `CC[C@H](C)[C@H](N)C(=O)N[C@@H](CC(N)=O)C(=O)N[C@@H](CC(C)C)C(=O)N[C@@H](CCCCN)C(=O)N[C@@H](C)C(=O)N[C@@H](CC(C)C)C(=O)N[C@@H](C)C(=O)N[C@@H](C)C(=O)N[C@@H](CC(C)C)C(=O)N[C@@H](C)C(=O)N[C@@H](CC(C)C)C(=O)N[C@@H](CCCCN)C(=O)N[C@H](C(=O)N[C@@H](CC(C)C)C(N)=O)[C@@H](C)CC` [L11]: the “Average (percentage cell inhibition), Mastoparan PBMC” value in the test with PBMC is given as 23.4198%. Besides, the “Average (percentage cell inhibition), Dmastoparan MDA-MB231 12.5uM” value with MDA-MB-231 cells is on record as 59.9826%.

Turning to `CC[C@H](C)[C@H](N)C(=O)N[C@@H](CC(N)=O)C(=O)N[C@@H](CC(C)C)C(=O)N[C@@H](CCCCN)C(=O)N[C@@H](C)C(=O)N[C@@H](CC(C)C)C(=O)N[C@@H](C)C(=O)N[C@@H](C)C(=O)N[C@@H](CC(C)C)C(=O)N[C@@H](C)C(=O)N[C@@H](CCCCN)C(=O)N[C@@H](CC(C)C)C(=O)N[C@H](C(=O)N[C@@H](CC(C)C)C(N)=O)[C@@H](C)CC` [L12], the “Average (percentage cell inhibition), Mastoparan PBMC” value with PBMC was found to be 80.1821%. In addition, in the test on MDA-MB-231 cells, the “Average (percentage cell inhibition), Dmastoparan MDA-MB231 12.5uM” value came out at 85.0992%.

In the case of `CC[C@H](C)[C@H](N)C(=O)N[C@@H](CC(N)=O)C(=O)N[C@@H](CC(C)C)C(=O)N[C@@H](CCCCN)C(=O)N[C@@H](C)C(=O)N[C@@H](CC(C)C)C(=O)N[C@@H](C)C(=O)N[C@@H](C)C(=O)N[C@@H](CC(C)C)C(=O)N[C@@H](C)C(=O)N[C@@H](CCCCN)C(=O)N[C@@H](CCCCN)C(=O)N[C@H](C(=O)N[C@@H](CC(C)C)C(N)=O)[C@@H](C)CC` [Lab Mastoparan L, reference compound], the “Average (percentage cell inhibition), Mastoparan PBMC” value in the test on PBMC was found to be 12.353%. Besides, the “Average (percentage cell inhibition), Dmastoparan MDA-MB231 12.5uM” value in the test on MDA-MB-231 cells was 41.709%.

Consider `CC[C@H](C)[C@H](NC(=O)[C@H](CCCCN)NC(=O)[C@H](CCCCN)NC(=O)[C@H](C)NC(=O)[C@H](CC(C)C)NC(=O)[C@H](C)NC(=O)[C@H](C)NC(=O)[C@H](CC(C)C)NC(=O)[C@H](C)NC(=O)[C@H](CCCCN)NC(=O)[C@H](CC(C)C)NC(=O)[C@H](CC(N)=O)NC(=O)[C@@H](N)CC(N)=O)C(=O)N[C@@H](CC(C)C)C(N)=O` [N1], for which, in the test with PBMC, the “Average (percentage cell inhibition), Mastoparan PBMC” value was 8.003%. Besides, the “Average (percentage cell inhibition), Dmastoparan MDA-MB231 12.5uM” value with MDA-MB-231 cells came to 25.1532%.

For the compound `CC[C@H](C)[C@H](N)C(=O)N[C@@H](CC(N)=O)C(=O)N[C@@H](CC(N)=O)C(=O)N[C@@H](CCCCN)C(=O)N[C@@H](C)C(=O)N[C@@H](CC(C)C)C(=O)N[C@@H](C)C(=O)N[C@@H](C)C(=O)N[C@@H](CC(C)C)C(=O)N[C@@H](C)C(=O)N[C@@H](CCCCN)C(=O)N[C@@H](CCCCN)C(=O)N[C@H](C(=O)N[C@@H](CC(C)C)C(N)=O)[C@@H](C)CC` [N3], the “Average (percentage cell inhibition), Mastoparan PBMC” value in the test with PBMC was -0.8054%. In the test on MDA-MB-231 cells, the “Average (percentage cell inhibition), Dmastoparan MDA-MB231 12.5uM” value came to 47.2847%.

`CC[C@H](C)[C@H](N)C(=O)N[C@@H](CC(N)=O)C(=O)N[C@@H](CC(C)C)C(=O)N[C@@H](CC(N)=O)C(=O)N[C@@H](C)C(=O)N[C@@H](CC(C)C)C(=O)N[C@@H](C)C(=O)N[C@@H](C)C(=O)N[C@@H](CC(C)C)C(=O)N[C@@H](C)C(=O)N[C@@H](CCCCN)C(=O)N[C@@H](CCCCN)C(=O)N[C@H](C(=O)N[C@@H](CC(C)C)C(N)=O)[C@@H](C)CC` [N4]: the “Average (percentage cell inhibition), Mastoparan PBMC” value in the test on PBMC is recorded as 12.5207%. For the same compound, the “Average (percentage cell inhibition), Dmastoparan MDA-MB231 12.5uM” value in the test on MDA-MB-231 cells is 50.001%.

On to `CC[C@H](C)[C@H](N)C(=O)N[C@@H](CC(N)=O)C(=O)N[C@@H](CC(C)C)C(=O)N[C@@H](CCCCN)C(=O)N[C@@H](CC(N)=O)C(=O)N[C@@H](CC(C)C)C(=O)N[C@@H](C)C(=O)N[C@@H](C)C(=O)N[C@@H](CC(C)C)C(=O)N[C@@H](C)C(=O)N[C@@H](CCCCN)C(=O)N[C@@H](CCCCN)C(=O)N[C@H](C(=O)N[C@@H](CC(C)C)C(N)=O)[C@@H](C)CC` [N5], for which, in the test on PBMC, the “Average (percentage cell inhibition), Mastoparan PBMC” value is given as 6.591%. Further, the “Average (percentage cell inhibition), Dmastoparan MDA-MB231 12.5uM” value in the test on MDA-MB-231 cells is given as 45.6062%.

Regarding `CC[C@H](C)[C@H](N)C(=O)N[C@@H](CC(N)=O)C(=O)N[C@@H](CC(C)C)C(=O)N[C@@H](CCCCN)C(=O)N[C@@H](C)C(=O)N[C@@H](CC(N)=O)C(=O)N[C@@H](C)C(=O)N[C@@H](C)C(=O)N[C@@H](CC(C)C)C(=O)N[C@@H](C)C(=O)N[C@@H](CCCCN)C(=O)N[C@@H](CCCCN)C(=O)N[C@H](C(=O)N[C@@H](CC(C)C)C(N)=O)[C@@H](C)CC` [N6], the “Average (percentage cell inhibition), Mastoparan PBMC” value with PBMC amounted to 6.768%. The “Average (percentage cell inhibition), Dmastoparan MDA-MB231 12.5uM” value in the test with MDA-MB-231 cells came to 7.402%.

As for `CC[C@H](C)[C@H](N)C(=O)N[C@@H](CC(N)=O)C(=O)N[C@@H](CC(C)C)C(=O)N[C@@H](CCCCN)C(=O)N[C@@H](C)C(=O)N[C@@H](CC(C)C)C(=O)N[C@@H](CC(N)=O)C(=O)N[C@@H](C)C(=O)N[C@@H](CC(C)C)C(=O)N[C@@H](C)C(=O)N[C@@H](CCCCN)C(=O)N[C@@H](CCCCN)C(=O)N[C@H](C(=O)N[C@@H](CC(C)C)C(N)=O)[C@@H](C)CC` [N7], the “Average (percentage cell inhibition), Mastoparan PBMC” value in the test with PBMC is on record as 10.586%. Also, the “Average (percentage cell inhibition), Dmastoparan MDA-MB231 12.5uM” value in the test on MDA-MB-231 cells was found to be 28.8818%.

With `CC[C@H](C)[C@H](N)C(=O)N[C@@H](CC(N)=O)C(=O)N[C@@H](CC(C)C)C(=O)N[C@@H](CCCCN)C(=O)N[C@@H](C)C(=O)N[C@@H](CC(C)C)C(=O)N[C@@H](C)C(=O)N[C@@H](CC(N)=O)C(=O)N[C@@H](CC(C)C)C(=O)N[C@@H](C)C(=O)N[C@@H](CCCCN)C(=O)N[C@@H](CCCCN)C(=O)N[C@H](C(=O)N[C@@H](CC(C)C)C(N)=O)[C@@H](C)CC` [N8], the “Average (percentage cell inhibition), Mastoparan PBMC” value in the test on PBMC was found to be 16.8851%. In addition, the “Average (percentage cell inhibition), Dmastoparan MDA-MB231 12.5uM” value in the test on MDA-MB-231 cells is 46.3177%.
